Measured values published in paper PMC3997483, “Aminostyrylbenzofuran Directly Reduces Oligomeric Amyloid-β and Reverses Cognitive Deficits in Alzheimer Transgenic Mice” (PLoS ONE, 2014).

Tested on: SD rats
Assay: 2-week repeated oral dose toxicity study
Format: in vivo
Details: for Abnormal gross findings of necropsy (changed animals / total) / Basophils / Body Weight (at necropsy) / Brain weight / CH / CHCM / Eosinophils / HDW / Heart weight / Hematocrit / Hemoglobin / LUC / Left adrenal weight / Left kidney weight / Left testis weight / Liver weight / Lung weight / Lympocytes / MCH / MCHC / MCV / MPV / Monocytes / Mortality (dead animals / total number of animals) / Neutrophils / Platelet / RBC / RDW / Rate body weight / brain / Rate body weight / heart / Rate body weight / left adrenal / Rate body weight / left kidney / Rate body weight / left testis / Rate body weight / liver / Rate body weight / lung / Rate body weight / right adrenal / Rate body weight / right kidney / Rate body weight / right testis / Rate body weight / spleen / Rate body weight / thymus / Retic / Right adrenal weight / Right kidney weight / Right testis weight / Spleen weight / Symptomatic signs / Thymus weight / WBC: 2 weeks
Experimental: KMS88009 was orally administered once a day by gavage for 14 consecutive days at dose level of 0 (vehicle), 100, 300 and 1,000 mg/kg (n = 5 per group). […] Organs were collected at necropsy; adrenal, kidney, thymus, spleen, heart, lung, liver, testis and brain. The absolute organ weights were measured and the organs-to-body weight ratios were calculated. Blood samples for hematological evaluation were collected from vein of animals under ether anesthesia. Food was withheld overnight before necropsy and blood collections. EDTA was used as an anticoagulant for hematology samples. White blood cell (WBC), red blood cell (RBC), hemoglobin concentration (HGB), hematocrit (HCT), mean corpuscular volume (MCV), mean corpuscular hemoglobin (MCH), mean corpuscular hemoglobin concentration (MCHC), cell hemoglobin concentration mean (CHCM), cell hemoglobin (CH), red cell distribution width (RDW), hemoglobin distribution width (HDW), platelet count (PLT), mean platelet volume (MPV) and reticulocyte were measured by a hematological autoanalyzer (ADVIA 120, Bayer, USA). To get the serum for biochemical analyses, blood samples in a separation tube were centrifuged at 4,000 rpm for 10 min on the day of necropsy. The serum was kept frozen at -70°C until analysis. Sodium citrate was used as an anticoagulant for biochemical analyses. Serum biochemical parameters including aspartate aminotransferase (AST), alanine aminotransferase (ALT), alkaline phosphatase (ALP), total bilirubin (T-Bil), albumin, total protein (TP), albumin/globulin ratio (A/G ratio), glucose, total cholesterol (CHO), triglyceride (TG), lactate dehydrogenase (LDH), creatine kinase (CK), blood urea nitrogen (BUN), creatinine (CRE), blood urea nitrogen/creatinine ratio (B/C ratio), Na^+, K^+ and Cl^- were evaluated by an autoanalyzer (Shimadzu CL-7200, Shimadzu Co., Japan).
All data for single and 2-week repeated oral dose toxicity studies were expressed as the mean ± SD Difference between control and treated groups were evaluated with one-way analysis of variance (ANOVA) followed by Dunnett's test. Value P<0.05 was taken as being statistically significant. Statistical analyses were performed using GraphPad Prism software (USA).

With COc1ccc2cc(C=Cc3ccc(N(C)C)cc3)oc2c1 [KMS88009, 6-methoxy-2-(4-dimethylaminostyryl) benzofuran] the no-observed-adverse-effect-level (SD rats, 2-week repeated oral administration) was “over 1,000 mg/kg”, the “Abnormal gross findings of necropsy (changed animals / total)” value (rats PO 100 mg/kg/day) was 0 / 5 and the Basophils (rats PO 100 mg/kg/day) was 0.02 ± 0.01 x10^3/μL. The “Body Weight (at necropsy)” value (rats PO 100 mg/kg/day) was 316.188 ± 16.093 g, the Brain weight (rats PO 100 mg/kg/day) was 1.948 ± 0.032 g and the CH (rats PO 100 mg/kg/day) was 20.3 ± 0.4 pg. The CHCM (rats PO 100 mg/kg/day) was 34.0 ± 0.4 g/dL, the Eosinophils (rats PO 100 mg/kg/day) was 0.07 ± 0.08 x10^3/μL and the HDW (rats PO 100 mg/kg/day) was 2.22 ± 0.08 g/dL. The Heart weight (rats PO 100 mg/kg/day) was 1.067 ± 0.098 g, the Hematocrit (rats PO 100 mg/kg/day) was 43.2 ± 2.6% and the Hemoglobin (rats PO 100 mg/kg/day) was 14.3 ± 1.0 g/dL. For the same molecule, the LUC (rats PO 100 mg/kg/day) was 0.03 ± 0.02 x10^3/μL, the Left adrenal weight (rats PO 100 mg/kg/day) was 0.027 ± 0.005 g and the Left kidney weight (rats PO 100 mg/kg/day) was 1.279 ± 0.083 g. It also gave a Left testis weight (rats PO 100 mg/kg/day) of 1.440 ± 0.114 g, a Liver weight (rats PO 100 mg/kg/day) of 10.988 ± 0.881 g and a Lung weight (rats PO 100 mg/kg/day) of 1.212 ± 0.077 g. For the same molecule, the Lympocytes (rats PO 100 mg/kg/day) was 6.64 ± 1.79 x10^3/μL, the MCH (rats PO 100 mg/kg/day) was 19.8 ± 0.5 pg and the MCHC (rats PO 100 mg/kg/day) was 33.1 ± 0.5 g/dL. For the same molecule, the MCV (rats PO 100 mg/kg/day) was 59.7 ± 1.3 fL, the MPV (rats PO 100 mg/kg/day) was 7.66 ± 0.2 fL and the Monocytes (rats PO 100 mg/kg/day) was 0.12 ± 0.03 x10^3/μL. For the same molecule, the “Mortality (dead animals / total number of animals)” value (rats PO 100 mg/kg/day) was 0 / 5, the Neutrophils (rats PO 100 mg/kg/day) was 1.74 ± 0.68 x10^3/μL and the Platelet (rats PO 100 mg/kg/day) was 1283 ± 239 x10^3/μL. For the same molecule, the RBC (rats PO 100 mg/kg/day) was 7.25 ± 0.46 x10^6/μL, the RDW (rats PO 100 mg/kg/day) was 12.0 ± 0.3% and the “Rate body weight / brain” value (rats PO 100 mg/kg/day) was 0.617 ± 0.026%. For the same molecule, the “Rate body weight / heart” value (rats PO 100 mg/kg/day) was 0.337 ± 0.024%, the “Rate body weight / left adrenal” value (rats PO 100 mg/kg/day) was 0.009 ± 0.002% and the “Rate body weight / left kidney” value (rats PO 100 mg/kg/day) was 0.404 ± 0.009%. For the same molecule, the “Rate body weight / left testis” value (rats PO 100 mg/kg/day) was 0.456 ± 0.036%, the “Rate body weight / liver” value (rats PO 100 mg/kg/day) was 3.473 ± 0.154% and the “Rate body weight / lung” value (rats PO 100 mg/kg/day) was 0.384 ± 0.031%. The “Rate body weight / right adrenal” value (rats PO 100 mg/kg/day) was 0.008 ± 0.001%, the “Rate body weight / right kidney” value (rats PO 100 mg/kg/day) was 0.414 ± 0.026% and the “Rate body weight / right testis” value (rats PO 100 mg/kg/day) was 0.459 ± 0.042%. The “Rate body weight / spleen” value (rats PO 100 mg/kg/day) was 0.230 ± 0.048%, the “Rate body weight / thymus” value (rats PO 100 mg/kg/day) was 0.205 ± 0.022% and the Retic (rats PO 100 mg/kg/day) was 324.8 ± 18.9 ^* x10^3/μL. It also gave a Right adrenal weight (rats PO 100 mg/kg/day) of 0.025 ± 0.002 g, a Right kidney weight (rats PO 100 mg/kg/day) of 1.310 ± 0.101 g and a Right testis weight (rats PO 100 mg/kg/day) of 1.450 ± 0.133 g. For the same molecule, the Spleen weight (rats PO 100 mg/kg/day) was 0.731 ± 0.188 g, the Symptomatic signs (rats PO 100 mg/kg/day) was “-” and the Thymus weight (rats PO 100 mg/kg/day) was 0.649 ± 0.073 g. For the same molecule, the WBC (rats PO 100 mg/kg/day) was 8.62 ± 1.70 x10^3/μL, the Body weight (rats PO 100 mg/kg/day, day 1) was 227.6 ± 7.8 g and the Body weight (rats PO 100 mg/kg/day, day 4) was 253.1 ± 7.0 g. It also gave a Body weight (rats PO 100 mg/kg/day, day 8) of 297.2 ± 9.3 g, a Body weight (rats PO 100 mg/kg/day, day 11) of 321.2 ± 13.1 g and a Body weight (rats PO 100 mg/kg/day, day 14) of 344.4 ± 17.1 g. For the same molecule, the “Abnormal gross findings of necropsy (changed animals / total)” value (rats PO 300 mg/kg/day) was 0 / 5, the Basophils (rats PO 300 mg/kg/day) was 0.01 ± 0.01 x10^3/μL and the “Body Weight (at necropsy)” value (rats PO 300 mg/kg/day) was 312.382 ± 14.169 g. The Brain weight (rats PO 300 mg/kg/day) was 1.680 ± 0.211 g, the CH (rats PO 300 mg/kg/day) was 20.4 ± 0.7 pg and the CHCM (rats PO 300 mg/kg/day) was 34.2 ± 0.3 g/dL. The Eosinophils (rats PO 300 mg/kg/day) was 0.03 ± 0.01 x10^3/μL, the HDW (rats PO 300 mg/kg/day) was 2.28 ± 0.12 g/dL and the Heart weight (rats PO 300 mg/kg/day) was 1.002 ± 0.038 g. For the same molecule, the Hematocrit (rats PO 300 mg/kg/day) was 41.4 ± 1.9%, the Hemoglobin (rats PO 300 mg/kg/day) was 13.9 ± 0.7 g/dL and the LUC (rats PO 300 mg/kg/day) was 0.02 ± 0.01 x10^3/μL. It also gave a Left adrenal weight (rats PO 300 mg/kg/day) of 0.026 ± 0.004 g, a Left kidney weight (rats PO 300 mg/kg/day) of 1.237 ± 0.082 g and a Left testis weight (rats PO 300 mg/kg/day) of 1.515 ± 0.189 g. For the same molecule, the Liver weight (rats PO 300 mg/kg/day) was 10.601 ± 0.687 g, the Lung weight (rats PO 300 mg/kg/day) was 1.214 ± 0.128 g and the Lympocytes (rats PO 300 mg/kg/day) was 3.98 ± 0.96 x10^3/μL. It also gave an MCH (rats PO 300 mg/kg/day) of 20.0 ± 0.6 pg, an MCHC (rats PO 300 mg/kg/day) of 33.4 ± 0.4 g/dL and an MCV (rats PO 300 mg/kg/day) of 59.7 ± 1.5 fL. The MPV (rats PO 300 mg/kg/day) was 7.84 ± 0.4 fL, the Monocytes (rats PO 300 mg/kg/day) was 0.08 ± 0.02 x10^3/μL and the “Mortality (dead animals / total number of animals)” value (rats PO 300 mg/kg/day) was 0 / 5. For the same molecule, the Neutrophils (rats PO 300 mg/kg/day) was 0.84 ± 0.21 x10^3/μL, the Platelet (rats PO 300 mg/kg/day) was 1309 ± 50 x10^3/μL and the RBC (rats PO 300 mg/kg/day) was 6.93 ± 0.26 x10^6/μL. For the same molecule, the RDW (rats PO 300 mg/kg/day) was 11.9 ± 0.4%, the “Rate body weight / brain” value (rats PO 300 mg/kg/day) was 0.537 ± 0.059% and the “Rate body weight / heart” value (rats PO 300 mg/kg/day) was 0.321 ± 0.011%. The “Rate body weight / left adrenal” value (rats PO 300 mg/kg/day) was 0.008 ± 0.001%, the “Rate body weight / left kidney” value (rats PO 300 mg/kg/day) was 0.396 ± 0.020% and the “Rate body weight / left testis” value (rats PO 300 mg/kg/day) was 0.487 ± 0.075%. For the same molecule, the “Rate body weight / liver” value (rats PO 300 mg/kg/day) was 3.393 ± 0.133%, the “Rate body weight / lung” value (rats PO 300 mg/kg/day) was 0.389 ± 0.037% and the “Rate body weight / right adrenal” value (rats PO 300 mg/kg/day) was 0.008 ± 0.001%. For the same molecule, the “Rate body weight / right kidney” value (rats PO 300 mg/kg/day) was 0.406 ± 0.008%, the “Rate body weight / right testis” value (rats PO 300 mg/kg/day) was 0.455 ± 0.023% and the “Rate body weight / spleen” value (rats PO 300 mg/kg/day) was 0.201 ± 0.037%. The “Rate body weight / thymus” value (rats PO 300 mg/kg/day) was 0.196 ± 0.036%, the Retic (rats PO 300 mg/kg/day) was 277.8 ± 39.6 x10^3/μL and the Right adrenal weight (rats PO 300 mg/kg/day) was 0.025 ± 0.004 g. The Right kidney weight (rats PO 300 mg/kg/day) was 1.266 ± 0.035 g, the Right testis weight (rats PO 300 mg/kg/day) was 1.420 ± 0.086 g and the Spleen weight (rats PO 300 mg/kg/day) was 0.629 ± 0.130 g. For the same molecule, the Symptomatic signs (rats PO 300 mg/kg/day) was “-”, the Thymus weight (rats PO 300 mg/kg/day) was 0.613 ± 0.115 g and the WBC (rats PO 300 mg/kg/day) was 4.95 ± 1.05 x10^3/μL. It also gave a Body weight (rats PO 300 mg/kg/day, day 1) of 227.8 ± 7.1 g, a Body weight (rats PO 300 mg/kg/day, day 4) of 250.5 ± 9.9 g and a Body weight (rats PO 300 mg/kg/day, day 8) of 294.2 ± 14.6 g.
